Data as given in ChEMBL document CHEMBL1201862, “PubChem BioAssay data set” (2004).
Active and inactive are the calls of the source.

Assays:
[1] = target: Lysine-specific demethylase 4A (Homo sapiens, UniProt O75164); test: JMJD2A histone demethylase inhibitors, dose response, selectivity assay for GASC-1 inhibitor project, biochemical, DELFIA europium, cherry-picked samples (AID 488840)
[2] = target: T1, Intestinal-type alkaline phosphatase (Homo sapiens, UniProt P09923); test: human IAP activators, dose response, biochemical, luminescent, uHTS hits, set 2 (AID 488817); type: functional;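 also: potency of activators that raise enzyme activity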
cells = type: functional, cell-based
[3] = target: T2, Alkaline phosphatase, tissue-nonspecific isozyme (Homo sapiens, UniProt P05186); test: TNAP enzyme activators, dose response, selectivity assay for human IAP activator project, biochemical, TNAP isozyme, human IAP uHTS hits (AID 488886); type: functional;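 also: potency of compounds raising TNAP activity as a selectivity check on IAP activators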
T2 sequence (P05186 whole entry): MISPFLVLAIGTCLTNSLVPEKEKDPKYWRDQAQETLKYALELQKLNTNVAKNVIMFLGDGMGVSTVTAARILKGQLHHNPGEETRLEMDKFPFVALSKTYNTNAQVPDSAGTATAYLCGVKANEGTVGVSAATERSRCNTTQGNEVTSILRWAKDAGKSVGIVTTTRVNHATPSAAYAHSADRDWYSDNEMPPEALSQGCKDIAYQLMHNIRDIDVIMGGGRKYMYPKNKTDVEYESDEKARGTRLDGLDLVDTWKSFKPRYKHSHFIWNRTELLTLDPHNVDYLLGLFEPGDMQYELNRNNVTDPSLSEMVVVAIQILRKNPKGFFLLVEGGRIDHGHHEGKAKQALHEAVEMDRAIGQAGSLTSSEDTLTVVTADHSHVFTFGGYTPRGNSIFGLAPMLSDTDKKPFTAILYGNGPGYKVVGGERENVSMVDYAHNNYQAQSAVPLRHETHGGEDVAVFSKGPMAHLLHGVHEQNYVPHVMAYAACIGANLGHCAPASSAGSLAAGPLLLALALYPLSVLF

[4] = target: T3, Intestinal-type alkaline phosphatase (Mus musculus, UniProt P24822); test: PubChem AID 488875; type: functional
[5] = target: T1, Intestinal-type alkaline phosphatase; test: human intestinal alkaline phosphatase activators, dose response, biochemical, luminescence, uHTS hits (AID 463120); type: functional
[6] = target: T4, Nuclear receptor subfamily 0 group B member 1 (Homo sapiens, UniProt P51843); type: functional, cell-based;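 also: HEK293T cells transfected with SF-1 and DAX-1 plus StAR promoter luciferase reporter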
T4 sequence (P51843 whole entry): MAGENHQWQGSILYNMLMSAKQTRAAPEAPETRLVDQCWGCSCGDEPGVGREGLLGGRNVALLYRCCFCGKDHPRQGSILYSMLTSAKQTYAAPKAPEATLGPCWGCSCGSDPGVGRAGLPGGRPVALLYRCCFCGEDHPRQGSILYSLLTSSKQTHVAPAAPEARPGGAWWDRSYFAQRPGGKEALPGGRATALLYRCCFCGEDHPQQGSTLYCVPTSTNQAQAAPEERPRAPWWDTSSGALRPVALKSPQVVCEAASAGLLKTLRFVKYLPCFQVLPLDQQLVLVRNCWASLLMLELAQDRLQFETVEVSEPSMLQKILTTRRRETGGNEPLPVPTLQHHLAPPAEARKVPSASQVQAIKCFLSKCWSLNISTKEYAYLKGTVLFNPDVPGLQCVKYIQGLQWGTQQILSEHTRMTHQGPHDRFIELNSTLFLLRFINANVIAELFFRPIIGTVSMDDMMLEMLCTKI

[7] = target: Voltage-dependent T-type calcium channel subunit alpha-1H (Homo sapiens, UniProt O95180); test: Cav3.2 T-type channel blockers, cell-based, SynthLib3 library, HEK293 Cav3.2, fluorescence (AID 493041); type: functional
[8] = target: T3, Intestinal-type alkaline phosphatase; test: PubChem AID 488785; type: functional
[9] = target: T1, Intestinal-type alkaline phosphatase; test: inhibition of human intestinal alkaline phosphatase – biochemical, dose response (AID 488876); type: functional
[10] = target: T2, Alkaline phosphatase, tissue-nonspecific isozyme; test: TNAP enzyme inhibition by screening hits, dose response, selectivity assay for mouse IAP inhibitor project, biochemical, human TNAP, uHTS hits (AID 488906); type: functional
[11] = target: T5, RNA-binding protein pos-1 (Caenorhabditis elegans, UniProt G5EF15); test: inhibitors of POS-1/mex-3 RNA binding, dose response, biochemical, fluorescence polarization (AID 1964);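 also: purified POS-1 fused to maltose binding protein made in E. coli; potency of compounds blocking POS-1 binding to fluorescent RNA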
T5 sequence (G5EF15 whole entry): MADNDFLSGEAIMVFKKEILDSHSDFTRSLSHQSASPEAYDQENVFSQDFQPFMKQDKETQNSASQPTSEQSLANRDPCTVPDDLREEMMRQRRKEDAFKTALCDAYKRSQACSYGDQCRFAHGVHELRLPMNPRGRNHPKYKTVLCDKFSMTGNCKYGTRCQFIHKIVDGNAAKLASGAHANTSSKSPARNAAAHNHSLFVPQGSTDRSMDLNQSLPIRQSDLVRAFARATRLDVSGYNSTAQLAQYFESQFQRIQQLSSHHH

[12] = target: T2, Alkaline phosphatase, tissue-nonspecific isozyme; test: human TNAP enzyme inhibitors, SAR follow-up, biochemical, luminescent, dose response (AID 1056)
[13] = target: T3, Intestinal-type alkaline phosphatase; test: mouse intestinal alkaline phosphatase activators, dose response, biochemical, luminescence, uHTS hits (AID 488783); type: functional
[14] = target: T1, Intestinal-type alkaline phosphatase; test: activation of human intestinal alkaline phosphatase – biochemical, dose response (AID 488873); type: functional
[15] = target: T6, Zinc finger protein mex-5 (Caenorhabditis elegans, UniProt Q9XUB2); test: MEX-5/TCR-2 RNA interaction inhibitors, dose response, biochemical, C. elegans, fluorescence polarization (AID 1960)
T6 sequence (Q9XUB2 whole entry): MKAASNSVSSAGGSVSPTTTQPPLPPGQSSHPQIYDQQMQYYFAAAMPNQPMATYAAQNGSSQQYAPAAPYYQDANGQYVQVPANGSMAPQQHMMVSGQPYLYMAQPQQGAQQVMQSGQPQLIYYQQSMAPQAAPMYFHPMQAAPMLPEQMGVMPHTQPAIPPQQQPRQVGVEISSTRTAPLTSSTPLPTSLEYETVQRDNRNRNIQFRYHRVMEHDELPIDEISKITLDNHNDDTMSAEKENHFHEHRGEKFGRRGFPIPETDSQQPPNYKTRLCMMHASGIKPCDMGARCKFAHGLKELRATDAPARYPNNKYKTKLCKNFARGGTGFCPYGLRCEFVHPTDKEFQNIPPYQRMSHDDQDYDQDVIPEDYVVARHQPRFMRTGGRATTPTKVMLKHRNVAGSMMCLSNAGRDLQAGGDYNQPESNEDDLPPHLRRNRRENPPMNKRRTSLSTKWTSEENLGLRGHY

[16] = target: T2, Alkaline phosphatase, tissue-nonspecific isozyme; test: TNAP enzyme activators, dose response, selectivity assay for mouse IAP activator project, biochemical, TNAP isozyme, mouse IAP uHTS hits (AID 488880); type: functional
Tumor necrosis factor = Tumor necrosis factor (Homo sapiens, UniProt P01375); test: TNFa-triggered NF-kB activation inhibitors, SAR follow-up, cell-based, set 3 (AID 2801); type: functional
[17] = target: Nucleotide-binding oligomerization domain-containing protein 2 (Homo sapiens, UniProt Q9HC29); test: NOD2 signaling inhibitors, analog potency, SAR follow-up, cell-based, set 3 (AID 2799); type: functional
HEK293 = test: SAR analysis of compounds that are cytotoxic to HEK293 - Set 3. [Related pubchem assays (depositor defined):AID1575, AID1578, AID1848, AID1849, AID2001, AID2333, AID2334, AID2335, AID2337, AID2469]; type: functional, cell-based; details: Homo sapiens
[18] = target: T7, Nucleotide-binding oligomerization domain-containing protein 1 (Homo sapiens, UniProt Q9Y239); test: SAR analysis of compounds that inhibit NOD1 - Set 3. [Related pubchem assays (depositor defined):AID1566, AID1575, AID1578, AID1849, AID1852, AID2333, AID2335, AID2466]; type: functional
T7 sequence (Q9Y239 whole entry): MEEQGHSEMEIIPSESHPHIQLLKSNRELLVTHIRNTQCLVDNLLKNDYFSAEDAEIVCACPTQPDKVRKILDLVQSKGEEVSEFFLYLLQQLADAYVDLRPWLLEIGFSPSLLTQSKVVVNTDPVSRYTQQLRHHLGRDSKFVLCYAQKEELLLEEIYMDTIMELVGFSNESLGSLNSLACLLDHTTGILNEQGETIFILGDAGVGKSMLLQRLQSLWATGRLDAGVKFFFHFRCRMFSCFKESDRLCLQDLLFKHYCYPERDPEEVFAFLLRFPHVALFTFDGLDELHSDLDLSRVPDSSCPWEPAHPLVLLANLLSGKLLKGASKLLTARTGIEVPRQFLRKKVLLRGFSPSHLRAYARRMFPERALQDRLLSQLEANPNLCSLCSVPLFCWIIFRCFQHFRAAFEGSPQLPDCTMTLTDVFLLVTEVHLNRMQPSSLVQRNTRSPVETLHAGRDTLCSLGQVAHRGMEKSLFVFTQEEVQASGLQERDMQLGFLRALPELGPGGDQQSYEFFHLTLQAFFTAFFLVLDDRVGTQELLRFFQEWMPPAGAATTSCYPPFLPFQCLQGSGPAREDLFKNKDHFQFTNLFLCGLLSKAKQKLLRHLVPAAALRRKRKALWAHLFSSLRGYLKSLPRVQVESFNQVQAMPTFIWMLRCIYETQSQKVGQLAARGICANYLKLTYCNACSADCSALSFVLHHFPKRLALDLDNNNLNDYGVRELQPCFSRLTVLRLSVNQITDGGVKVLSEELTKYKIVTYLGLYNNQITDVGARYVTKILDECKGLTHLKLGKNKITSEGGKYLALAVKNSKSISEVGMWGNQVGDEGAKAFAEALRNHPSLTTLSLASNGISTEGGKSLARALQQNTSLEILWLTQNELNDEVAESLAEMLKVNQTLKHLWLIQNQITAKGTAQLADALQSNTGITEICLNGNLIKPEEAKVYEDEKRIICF

[19] = target: T3, Intestinal-type alkaline phosphatase; test: PubChem AID 488874; type: functional
[20] = target: T1, Intestinal-type alkaline phosphatase; test: human IAP inhibitors, dose response, biochemical, luminescent, uHTS hits, set 2 (AID 488793); type: functional
[21] = target: T1, Intestinal-type alkaline phosphatase; test: Dose Response confirmation of uHTS hits from a small molecule inhibitors of human intestinal alkaline phosphatase via a luminescent assay. [Related pubchem assays (depositor defined):AID2544, AID2574]; type: functional
[22] = human group III sPLA2 inhibitors, dose response, biochemical, QFRET, IC50 (AID 743457);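 also: green fluorescence rise as the enzyme cleaves BODIPY PC-A2 in liposomes; potency for inhibition of the enzyme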
[23] = target: T2, Alkaline phosphatase, tissue-nonspecific isozyme; test: inhibition of tissue-nonspecific alkaline phosphatase – biochemical, dose response (AID 488882); type: functional
[24] = target: Peroxisome proliferator-activated receptor gamma/Nuclear receptor coactivator 2 (Homo sapiens, UniProt P37231); test: (§1) TR-FRET dose response biochemical High Throughput Screening assay for agonists of the steroid receptor coactivator 2 (SRC-2) recruitment by the peroxisome proliferator-activated receptor gamma (PPAR gamma): non-selective agonists. [Related pubchem assays: 1297, 1032 ]; type: functional
[25] = target: Peroxisome proliferator-activated receptor gamma/Nuclear receptor coactivator 1 (Homo sapiens, UniProt P37231); test: as §1, with “1 (SRC-1)” for “2 (SRC-2)”, “assays (depositor defined):AID1300, AID1808, AID504735, AID631]” for “assays: 1297, 1032 ]”; type: protein assay
H9c2 = test: cells; type: functional, cell-based; details: Rattus norvegicus, H9c2, Myocardium;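 also: confirmatory concentration-response retest of ultra-high-throughput screening hits for modulation of myocardial damage; cell death induced by hydrogen peroxide oxidative stress; compound pretreatment for 60 min then peroxide exposure for 2 h; potency is for protecting the cells against peroxide damage rather than for killing them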
[26] = target: Peroxisome proliferator-activated receptor gamma/Nuclear receptor coactivator 3 (Homo sapiens, UniProt P37231); test: as §1, with “3 (SRC-3)” for “2 (SRC-2)”, “1301 (Confirmation screen.), 1048 (Primary screen.)]” for “1297, 1032 ]”; type: functional

T1 sequence (P09923 whole entry): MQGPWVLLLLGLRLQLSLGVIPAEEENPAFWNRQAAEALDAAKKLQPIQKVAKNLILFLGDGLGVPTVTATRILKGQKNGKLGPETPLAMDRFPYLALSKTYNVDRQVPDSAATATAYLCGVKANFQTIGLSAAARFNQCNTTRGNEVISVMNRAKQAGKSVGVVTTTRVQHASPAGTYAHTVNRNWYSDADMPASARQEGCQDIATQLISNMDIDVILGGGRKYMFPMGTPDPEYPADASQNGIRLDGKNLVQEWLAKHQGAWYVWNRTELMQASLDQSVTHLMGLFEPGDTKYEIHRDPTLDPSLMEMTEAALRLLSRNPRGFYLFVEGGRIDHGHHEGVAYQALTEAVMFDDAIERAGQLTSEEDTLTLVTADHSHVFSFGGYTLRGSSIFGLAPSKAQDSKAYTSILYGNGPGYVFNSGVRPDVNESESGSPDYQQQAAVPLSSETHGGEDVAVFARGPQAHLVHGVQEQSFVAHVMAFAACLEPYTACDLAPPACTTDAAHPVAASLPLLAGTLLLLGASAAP
T3 sequence (P24822 whole entry): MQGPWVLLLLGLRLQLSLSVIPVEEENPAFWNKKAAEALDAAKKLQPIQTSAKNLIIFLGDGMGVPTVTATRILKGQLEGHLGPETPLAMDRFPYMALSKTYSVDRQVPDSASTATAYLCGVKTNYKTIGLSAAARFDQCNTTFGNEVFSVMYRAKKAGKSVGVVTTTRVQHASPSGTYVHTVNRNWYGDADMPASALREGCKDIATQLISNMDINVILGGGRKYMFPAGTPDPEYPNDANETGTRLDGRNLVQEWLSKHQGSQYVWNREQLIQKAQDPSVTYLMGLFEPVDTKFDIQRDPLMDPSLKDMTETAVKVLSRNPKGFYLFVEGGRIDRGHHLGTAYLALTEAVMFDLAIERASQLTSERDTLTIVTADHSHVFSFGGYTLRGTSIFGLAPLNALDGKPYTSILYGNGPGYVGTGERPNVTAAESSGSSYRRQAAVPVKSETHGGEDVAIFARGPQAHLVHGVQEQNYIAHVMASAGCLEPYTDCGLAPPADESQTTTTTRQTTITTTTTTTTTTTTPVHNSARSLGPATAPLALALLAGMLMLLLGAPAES
Sequence of Tumor necrosis factor (P01375 whole entry, the tested form may be a part): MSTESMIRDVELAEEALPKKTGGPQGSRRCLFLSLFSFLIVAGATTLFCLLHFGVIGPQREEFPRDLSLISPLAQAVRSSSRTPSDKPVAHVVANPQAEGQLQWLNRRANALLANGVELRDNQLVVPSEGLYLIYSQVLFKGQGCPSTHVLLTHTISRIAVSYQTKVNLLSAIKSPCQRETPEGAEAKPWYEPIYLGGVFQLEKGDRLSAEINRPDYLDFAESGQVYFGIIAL
Sequence of Nucleotide-binding oligomerization domain-containing protein 2 (Q9HC29 whole entry, the tested form may be a part): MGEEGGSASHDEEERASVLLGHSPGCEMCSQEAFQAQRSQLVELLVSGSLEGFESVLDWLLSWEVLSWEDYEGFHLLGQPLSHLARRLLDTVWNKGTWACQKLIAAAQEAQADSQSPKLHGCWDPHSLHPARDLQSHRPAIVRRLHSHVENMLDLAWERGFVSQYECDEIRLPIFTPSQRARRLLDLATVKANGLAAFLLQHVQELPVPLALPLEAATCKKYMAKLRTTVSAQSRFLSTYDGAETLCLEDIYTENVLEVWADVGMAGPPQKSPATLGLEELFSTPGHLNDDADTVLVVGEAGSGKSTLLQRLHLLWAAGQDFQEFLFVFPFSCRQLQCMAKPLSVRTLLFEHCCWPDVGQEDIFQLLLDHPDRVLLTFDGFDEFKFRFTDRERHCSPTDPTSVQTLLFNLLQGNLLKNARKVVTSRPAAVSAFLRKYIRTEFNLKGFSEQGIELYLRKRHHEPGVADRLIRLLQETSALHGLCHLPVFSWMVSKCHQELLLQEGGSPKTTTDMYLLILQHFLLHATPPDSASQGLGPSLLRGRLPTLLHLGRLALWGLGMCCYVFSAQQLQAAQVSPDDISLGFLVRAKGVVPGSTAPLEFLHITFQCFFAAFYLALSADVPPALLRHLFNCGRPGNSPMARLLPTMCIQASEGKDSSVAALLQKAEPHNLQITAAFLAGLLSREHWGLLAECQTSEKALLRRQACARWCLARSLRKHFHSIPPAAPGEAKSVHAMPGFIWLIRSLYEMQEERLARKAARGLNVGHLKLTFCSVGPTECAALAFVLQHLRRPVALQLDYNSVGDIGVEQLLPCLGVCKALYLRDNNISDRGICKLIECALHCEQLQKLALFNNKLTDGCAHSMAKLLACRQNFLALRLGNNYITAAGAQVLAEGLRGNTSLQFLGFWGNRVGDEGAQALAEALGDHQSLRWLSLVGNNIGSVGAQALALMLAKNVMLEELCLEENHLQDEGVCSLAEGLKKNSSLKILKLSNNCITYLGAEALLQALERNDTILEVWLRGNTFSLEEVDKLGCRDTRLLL
Sequence of Voltage-dependent T-type calcium channel subunit alpha-1H (O95180 whole entry): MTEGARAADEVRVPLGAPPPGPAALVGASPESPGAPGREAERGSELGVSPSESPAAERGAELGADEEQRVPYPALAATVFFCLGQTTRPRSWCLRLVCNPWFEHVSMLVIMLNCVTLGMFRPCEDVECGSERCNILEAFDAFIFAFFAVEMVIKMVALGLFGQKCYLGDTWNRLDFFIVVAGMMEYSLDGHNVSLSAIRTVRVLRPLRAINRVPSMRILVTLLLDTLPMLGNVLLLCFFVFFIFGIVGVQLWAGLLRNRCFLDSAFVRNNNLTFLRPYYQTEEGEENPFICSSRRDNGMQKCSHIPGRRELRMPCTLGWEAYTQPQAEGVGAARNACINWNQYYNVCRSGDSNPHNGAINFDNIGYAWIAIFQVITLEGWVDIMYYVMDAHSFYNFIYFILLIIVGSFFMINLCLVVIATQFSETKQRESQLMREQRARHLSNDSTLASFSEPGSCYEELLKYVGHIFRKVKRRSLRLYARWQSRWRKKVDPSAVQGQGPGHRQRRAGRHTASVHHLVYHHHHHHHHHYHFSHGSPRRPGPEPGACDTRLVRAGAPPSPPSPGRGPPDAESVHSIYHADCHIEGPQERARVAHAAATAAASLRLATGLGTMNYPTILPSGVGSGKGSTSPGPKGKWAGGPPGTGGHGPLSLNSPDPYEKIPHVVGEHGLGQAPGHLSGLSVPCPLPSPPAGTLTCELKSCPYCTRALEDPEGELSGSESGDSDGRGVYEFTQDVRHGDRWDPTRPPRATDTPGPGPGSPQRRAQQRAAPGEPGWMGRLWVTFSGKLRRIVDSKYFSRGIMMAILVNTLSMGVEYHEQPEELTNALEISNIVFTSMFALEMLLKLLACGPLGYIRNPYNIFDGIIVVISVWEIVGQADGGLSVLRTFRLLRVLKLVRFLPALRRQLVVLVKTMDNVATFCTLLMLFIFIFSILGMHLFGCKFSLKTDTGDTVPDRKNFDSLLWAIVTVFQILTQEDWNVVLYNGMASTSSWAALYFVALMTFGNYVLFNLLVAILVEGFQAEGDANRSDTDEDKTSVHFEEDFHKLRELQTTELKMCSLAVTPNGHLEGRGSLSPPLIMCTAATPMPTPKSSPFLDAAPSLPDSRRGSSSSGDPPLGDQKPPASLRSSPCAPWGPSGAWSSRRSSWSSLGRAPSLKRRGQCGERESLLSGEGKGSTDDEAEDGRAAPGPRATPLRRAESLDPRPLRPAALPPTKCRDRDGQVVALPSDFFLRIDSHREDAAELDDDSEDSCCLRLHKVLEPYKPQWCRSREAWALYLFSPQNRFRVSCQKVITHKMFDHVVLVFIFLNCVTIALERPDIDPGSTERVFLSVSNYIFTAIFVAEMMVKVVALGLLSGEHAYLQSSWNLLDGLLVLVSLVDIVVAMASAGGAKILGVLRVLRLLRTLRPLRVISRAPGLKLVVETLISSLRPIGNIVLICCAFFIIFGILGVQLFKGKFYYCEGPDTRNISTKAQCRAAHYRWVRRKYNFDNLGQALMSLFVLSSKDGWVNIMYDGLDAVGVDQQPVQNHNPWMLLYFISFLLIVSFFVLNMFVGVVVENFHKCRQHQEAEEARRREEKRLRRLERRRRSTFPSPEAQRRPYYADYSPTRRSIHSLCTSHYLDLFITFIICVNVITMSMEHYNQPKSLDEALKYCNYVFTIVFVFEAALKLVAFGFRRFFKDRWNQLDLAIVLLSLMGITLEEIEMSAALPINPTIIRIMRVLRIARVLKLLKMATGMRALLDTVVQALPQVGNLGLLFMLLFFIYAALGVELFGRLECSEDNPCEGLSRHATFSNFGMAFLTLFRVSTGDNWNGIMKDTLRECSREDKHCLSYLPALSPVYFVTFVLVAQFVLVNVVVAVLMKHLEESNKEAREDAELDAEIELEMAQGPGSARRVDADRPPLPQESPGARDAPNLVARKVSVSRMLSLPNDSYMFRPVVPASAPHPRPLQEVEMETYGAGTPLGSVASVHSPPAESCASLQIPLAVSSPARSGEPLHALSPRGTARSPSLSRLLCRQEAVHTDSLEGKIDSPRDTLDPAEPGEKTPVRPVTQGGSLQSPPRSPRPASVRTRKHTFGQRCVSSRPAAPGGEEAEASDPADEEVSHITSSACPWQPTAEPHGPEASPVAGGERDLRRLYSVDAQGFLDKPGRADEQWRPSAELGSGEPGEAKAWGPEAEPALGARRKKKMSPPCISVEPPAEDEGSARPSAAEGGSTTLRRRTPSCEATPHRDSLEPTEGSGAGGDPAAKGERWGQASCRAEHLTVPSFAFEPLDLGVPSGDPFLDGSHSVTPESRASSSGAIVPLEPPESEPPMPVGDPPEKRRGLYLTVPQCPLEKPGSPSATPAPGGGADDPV

Cc1cc(C(=O)Nc2sc3c(c2C#N)CCC(C)C3)no1 (stereo not given)
AC50 [1]: > 60 µM (inactive)

CCc1ccc(/C=N/Nc2[nH]cnc3ncnc2-3)cc1
EC50 [2]: 12.5 µM (active)
IC50 (cells): > 67.5 µM (inactive)
EC50 [3]: 17.7 µM (active)
EC50 [4]: > 100 µM (inactive)
EC50 [5]: 6.62 µM (active)
IC50 [6]: 2.09 µM (active)

CCC(C)CN1CC2CCC(NC(=O)c3cc(Cl)cc(Cl)c3)C2C1 (stereo not given)
EC50 [7]: 9.4 µM (active)

COc1ccc(CN2C3CCCC2CC(NC(=O)Nc2cccc(C)c2)C3)cc1 (stereo not given)
IC50 [8]: 11 µM (active)
IC50 [9]: 22.7 µM (active)
IC50 [10]: 32.2 µM (active)

COc1ccc(OC)c(S(=O)(=O)Nc2ccc(O)c(Sc3nc[nH]n3)c2)c1
EC50 [11]: 11.5 µM (active)
IC50 [12]: 13.1 µM (active)
EC50 [13]: 66.9 µM (active)
EC50 [14]: 74.7 µM (active)
EC50 [15]: 17.7 µM (inconclusive)
EC50 [16]: 62.1 µM (active)

Nc1nc2ccccc2n1S(=O)(=O)c1ccc(OC(F)(F)F)cc1
IC50 (Tumor necrosis factor): > 20 µM (inactive)
IC50 [17]: > 20 µM (inactive)
IC50 (HEK293): > 20 µM (inactive)
IC50 [18]: 8.94 µM (active)

CCN(CC)c1ccc(N=Nc2nn(C)c(C)c2[N+](=O)[O-])cc1
IC50 [19]: 35.3 µM (active)
IC50 [20]: 52.5 µM (active)
IC50 [21]: 13 µM (inactive)
IC50 [22]: > 122 µM (inactive)
IC50 [23]: 47.1 µM (active)

O=C(Nc1cccnc1)c1sc(Nc2ccccc2)nc1-c1ccccc1
EC50 [24]: 3.26 µM (active)
EC50 [25]: 2.72 µM (active)
IC50 (H9c2): > 79 µM (inactive)
EC50 [26]: 40 µM (not active)
